A word on the IC50: it is the midpoint of a concentration-inhibition curve. High values mean a need for much substance, low ones inhibition by little substance.

The test relates to HSV-1. Nature of the test: HSV-1 replication in infected Vero 76 cells, viral DNA hybridization capture assay. As to conditions: Human alphaherpesvirus 1, Vero 76, HSV-1, Vero 76 cells, MOI=0.001, 40–48 hours incubation. The class given is cell-based. The procedure: Vero 76 cells were maintained in MEM with Earle's salts, L-glutamine, 8% FBS (Hyclone, A-1111-L) and 100 units/mL Penicillin-100 μg/mL Streptomycin. For assay conditions, FBS was reduced to 2%. Cells are seeded into 96-well tissue culture plates at a density of 5×10^4 cells/well after being incubated for 45 min at 37° C. in the presence of HSV-1 or HSV-2 (MOI=0.001). Test compounds are added to the wells and the plates are incubated at 37° C. for 40–48 hours. Cell lysates are prepared as follows: media was removed and replaced with 150 μL/well 0.2 N NaOH with 1% Igepal CA 630 or NP-40. Plates were incubated up to 14 days at room temperature in a humidified chamber to prevent evaporation. • (b) Preparation of Detection DNA.
For the detection probe, a gel-purified, digoxigenin-labeled, […] PCR fragment of the HSV UL-15 sequence was utilized. PCR conditions included 0.5 μM primers, 180 μM dTP, 20 μM dUTP-digoxigenin (Boehringer Mannheim 1558706), 200 μM each of dATP, dCTP, and dGTP, 1×PCR Buffer II (Perkin Elmer), 2.5 mM MgCl2, 0.025 units/μL of AmpliTaq Gold polymerase (Perkin Elmer), and 5 ng of gel-purified HSV DNA per 100 μL. Extension conditions were 10 min at 95° C., followed by 30 cycles of 95° C. for 1 min, 55° C. for 30 sec, and 72° C. for 2 min. The amplification was completed with a 10-min incubation at 72° C. Primers were selected to amplify a 728 bp probe spanning a section of the HSV1 UL15 open reading frame (nucleotides 249–977). Single-stranded transcripts were purified with Promega M13 Wizard kits. The final product was mixed 1:1 with a mixture of 6 M GuSCN, 100 mM EDTA and 200 μg/mL herring sperm DNA and stored at 4° C. • (c) Preparation of Capture Plates.
The capture DNA plasmid (HSV UL13 region in pUC) was linearized by cutting with Xba I, denatured for 15 min at 95° C. and diluted immediately into Reacti-Bind DNA Coating Solution (Pierce, 17250, diluted 1:1 with TE buffer, pH 8) at 1 ng/μL 75 μL/well were added to Corning (#3922 or 9690) white 96-well plates and incubated at room temperature for at least 4 hrs before washing twice with 300 μL/well 0.2×SSC/0.05% Tween-20 (SSC/T buffer). The plates were then incubated overnight at room temperature with 150 μL/well 0.2 N NaOH, 1% IGEPAL and 10 μg/mL herring sperm DNA. • (d) Hybridization.
Twenty-seven (27) μL of cell lysate was combined with 45 μL of hybridization solution (final concentration: 3M GuSCN, 50 mM EDTA, 100 μg/ml salmon sperm DNA, 5× Denhardt's solution, 0.25×APE, and 5 ng of the digoxigenin-labeled detection probe). APE is 1.5 M NH4-acetate, 0.15 M ammonium phosphate, and 5 mM EDTA adjusted to pH 6.0. Mineral oil (50 μL) was added to prevent evaporation. The hybridization plates were incubated at 95° C. for 10 minutes to denature the DNA, then incubated at 42° C. overnight. The wells were washed 6× with 300 μL/well SSC/T buffer then incubated with 75 μL/well anti-digoxigenin-HRP-conjugated antibody (Boehringer Mannheim 1207733, 1:5000 in TE) for 30 min at room temperature. The wells were washed 6× with 300 μL/well with PBS/0.05% Tween-20 before 75 μL/well SuperSignal LBA substrate (Pierce) was added. The plates were incubated at room temperature for 30 minutes and chemiluminescence was measured in a Wallac Victor reader. • e) Results.
The following results were obtained for HSV-1.
In the case of `Fc1ccc(-c2nn3c(Cl)cccc3c2-c2ccnc(NC3CCCC3)n2)cc1` [Example 26, 4-[7-Chloro-2-(4-fluorophenyl)pyrazolo[1,5-α]pyridin-3-yl]-N-cyclopentyl-2-pyrimidinamine], half-maximal inhibition (IC50) was put at 1.5 µM.

`O=C(O)c1cc(-c2c(-c3ccc(F)cc3)nn3c(Cl)cccc23)nc(NC2CCCC2)n1` [Example 27, 6-[7-Chloro-2-(4-fluorophenyl)pyrazolo[1,5-α]pyridin-3-yl]-2-(cyclopentylamino)-4-pyrimidinecarboxylic acid] gave an IC50 of 1.3 µM.

The compound `Fc1ccc(-c2nn3c(NC4CCCC4)cccc3c2-c2ccncc2)cc1` [Example 28, N-cyclopentyl-2-(4-fluorophenyl)-3-(4-pyridinyl)pyrazolo[1,5-α]pyridin-7-amine] yielded a concentration for half-maximal inhibition (IC50) of 2 µM.

Regarding `Fc1ccc(-c2nn3c(NC4CCCC4)cccc3c2-c2ccnc(NC3CCCC3)c2)cc1` [Example 29, N-Cyclopentyl-3-[2-(cyclopentylamino)-4-pyridinyl]-2-(4-fluorophenyl)pyrazolo[1,5-α]pyridin-7-amine], it took 0.3 µM to reach half-maximal inhibition (IC50).

For `NNc1cc(-c2c(-c3ccc(F)cc3)nn3c(NC4CCCC4)cccc23)ccn1` [Example 30, N-Cyclopentyl-2-(4-fluorophenyl)-3-(2-hydrazino-4-pyridinyl)pyrazolo[1,5-α]pyridin-7-amine], half-maximal inhibition (IC50) was put at 5 µM.

`Fc1ccc(-c2nn3c(N4CCCC4)cccc3c2-c2ccnc(NC3CCCC3)n2)cc1` [Example 31, N-Cyclopentyl-4-[2-(4-fluorophenyl)-7-(1-pyrrolidinyl)pyrazolo[1,5-α]pyridin-3-yl]-2-pyrimidinamine] gave an IC50 of 1 µM.

As to `CN(C)c1nccc(-c2c(-c3ccc(F)cc3)nn3c(N4CCCC4)cccc23)n1` [Example 32, 4-[2-(4-Fluorophenyl)-7-(1-pyrrolidinyl)pyrazolo[1,5-α]pyridin-3-yl]-N,N-dimethyl-2-pyrimidinamine], the IC50 came out at 5 µM.

As to `CCCCNc1nccc(-c2c(-c3ccc(F)cc3)nn3c(NC4CC4)cccc23)n1` [Example 33, 3-[2-(Butylamino)-4-pyrimidinyl]-N-cyclopropyl-2-(4-fluorophenyl)pyrazolo[1,5-α]pyridin-7-amine], the half-maximal inhibitory concentration (IC50) is 0.2 µM.

In turn, `CCCCNc1nccc(-c2c(-c3ccc(F)cc3)nn3c(N(C)C)cccc23)n1` [Example 34, 3-[2-(Butylamino)-4-pyrimidinyl]-2-(4-fluorophenyl)-N,N-dimethylpyrazolo[1,5-α]pyridin-7-amine] showed an IC50 of 0.3 µM.

The compound `CCCCNc1nccc(-c2c(-c3ccc(F)cc3)nn3c(N4CCN(C)CC4)cccc23)n1` [Example 35, N-Butyl-4-[2-(4-fluorophenyl)-7-(4-methyl-1-piperazinyl)pyrazolo[1,5-α]pyridin-3-yl]-2-pyrimidinamine] displayed a half-maximal inhibitory concentration (IC50) of 0.9 µM.

For `CCCCNc1nccc(-c2c(-c3ccc(F)cc3)nn3c(N4CCOCC4)cccc23)n1` [Example 36, N-Butyl-4-[2-(4-fluorophenyl)-7-(4-morpholinyl)pyrazolo[1,5-α]pyridin-3-yl]-2-pyrimidinamine], the IC50 was found to be 0.8 µM.

`CCCCNc1cccc2c(-c3ccnc([S+](C)[O-])n3)c(-c3ccc(F)cc3)nn12` (stereo not drawn) [Example 37, N-Butyl-2-(4-fluorophenyl)-3-[2-(methylsulfinyl)-4-pyrimidinyl]-pyrazolo[1,5-α]pyridin-7-amine] returned a half-inhibitory concentration (IC50) of 15 µM.

For the compound `CCCCNc1cccc2c(-c3ccnc(NCCCO)n3)c(-c3ccc(F)cc3)nn12` [Example 38, 3-({4-[7-(Butylamino)-2-(4-fluorophenyl)pyrazolo[1,5-α]pyridin-3-yl]-2-pyrimidinyl}amino)-1-propanol], the IC50 came out at 5 µM.

With `C=CCNc1nccc(-c2c(-c3ccc(F)cc3)nn3c(NCCCC)cccc23)n1` [Example 39, 3-[2-(Allylamino)-4-pyrimidinyl]-N-butyl-2-(4-fluorophenyl)pyrazolo-[1,5-α]pyridin-7-amine], the half-maximal inhibitory concentration (IC50) stood at 1 µM.

For `CCCCNc1cccc2c(-c3ccnc(N4CCOCC4)n3)c(-c3ccc(F)cc3)nn12` [Example 40, N-Butyl-2-(4-fluorophenyl)-3-[2-(4-morpholinyl)-4-pyrimidinyl]pyrazolo[1,5-α]pyridin-7-amine], the IC50 is 15 µM.

`CCCCNc1cccc2c(-c3ccnc(N4CCN(CCO)CC4)n3)c(-c3ccc(F)cc3)nn12` [Example 41, 2-(4-{4-[7-(Butylamino)-2-(4-fluorophenyl)pyrazolo[1,5-α]pyridin-3-yl]-2-pyrimidinyl}-1-piperazinyl)ethanol] gave a 50% inhibitory concentration (IC50) of 6 µM.

As to `CCCCNc1cccc2c(-c3ccnc(N4CCN(CCOC)CC4)n3)c(-c3ccc(F)cc3)nn12` [Example 42, N-Butyl-2-(4-fluorophenyl)-3-{2-[4-(2-methoxyethyl)-1-piperazinyl]-4-pyrimidinyl}pyrazolo[1,5-α]pyridin-7-amine], the concentration for half-maximal inhibition (IC50) was 10 µM.

Compound `CCCCNc1cccc2c(-c3ccnc(NCc4ccccn4)n3)c(-c3ccc(F)cc3)nn12` [Example 43, N-Butyl-2-(4-fluorophenyl)-3-{2-[(2-pyridinylmethyl)amino]-4-pyrimidinyl}pyrazolo[1,5-α]pyridin-7-amine] yielded an IC50 of 3 µM.

`CCCCNc1cccc2c(-c3ccnc(NCCCn4ccnc4)n3)c(-c3ccc(F)cc3)nn12` [Example 44, N-Butyl-2-(4-fluorophenyl)-3-(2-{[3-(1H-imidazol-1-yl)propyl]amino}-4-pyrimidinyl)pyrazolo[1,5-α]pyridin-7-amine] yielded an IC50 of 4 µM.

`CCCCNc1cccc2c(-c3ccnc(NCCN4CCOCC4)n3)c(-c3ccc(F)cc3)nn12` [Example 45, N-Butyl-2-(4-fluorophenyl)-3-(2-{[2-(4-morpholinyl)ethyl]amino}-4-pyrimidinyl)pyrazolo[1,5-α]pyridin-7-amine]: the IC50 was found to be 5 µM.

For the compound `CCCCNc1cccc2c(-c3ccnc(OCCN4CCOCC4)n3)c(-c3ccc(F)cc3)nn12` [Example 46, N-Butyl-2-(4-fluorophenyl)-3-{2-[2-(4-morpholinyl)ethoxy]-4-pyrimidinyl}pyrazolo[1,5-α]pyridin-7-amine], the IC50 came to 7 µM.

Compound `CCCCNc1nccc(-c2c(-c3ccc(F)cc3)nn3c(NCCN4CCOCC4)cccc23)n1` [Example 47, 3-[2-(Butylamino)-4-pyrimidinyl]-2-(4-fluorophenyl)-N-[2-(4-morpholinyl)ethyl]pyrazolo[1,5-α]pyridin-7-amine] had a half-maximal inhibitory concentration (IC50) of 0.4 µM.

The compound `CCCCNc1nccc(-c2c(-c3ccc(F)cc3)nn3c(NCCOC)cccc23)n1` [Example 48, 3-[2-(Butylamino)-4-pyrimidinyl]-2-(4-fluorophenyl)-N-(2-methoxyethyl)pyrazolo[1,5-α]pyridin-7-amine] had a half-maximal inhibitory concentration (IC50) of 0.3 µM.

`CCCCNc1nccc(-c2c(-c3ccc(F)cc3)nn3c(NC)cccc23)n1` [Example 49, 3-[2-(Butylamino)-4-pyrimidinyl]-2-(4-fluorophenyl)-N-methylpyrazolo[1,5-α]pyridin-7-amine] showed a 50% inhibitory concentration (IC50) of 1.2 µM.

As to `CN(C)Cc1cc(-c2c(-c3ccc(F)cc3)nn3c(NC4CCCC4)cccc23)nc(NC2CCCC2)n1` [Example 51, N-Cyclopentyl-3-{2-(cyclopentylamino)-6-[(dimethylamino)methyl]-4-pyrimidinyl}-2-(4-fluorophenyl)pyrazolo[1,5-α]pyridin-7-amine], the IC50 came to 5 µM.
